Where two headings read alike, the source gives them in different places.
Tested on: testosterone response
Experiment: Biological data comparing pure enantiomers of Casodex (bicalutamide) with the racemic mixture: reduction of the testosterone response
Format: cell-based
From the text: The data for dihydrotestosterone are EC50 values. The rest of the data are IC50 values, since the assay is measuring the amount of compound it takes to reduce the testosterone response 50%.

[1] = Experiment 1, amount of compound it takes to reduce the testosterone response 50%, read-out: IC50, Experiment 1
[2] = Experiment 2, amount of compound it takes to reduce the testosterone response 50%, read-out: IC50, Experiment 2

| SMILES | IC50 [1] | IC50 [2] | further results |
| --- | --- | --- | --- |
| CC(O)(CS(=O)(=O)c1ccc(F)cc1)C(=O)Nc1ccc(C#N)c(C(F)(F)F)c1 (racemic) [Racemate, N-[4-cyano-3-(trifluoromethyl)phenyl]-3-[(4-fluorophenyl)sulfonyl]-2-hydroxy-2-methyl-propanamide,(+−)] | – | – | IC50 (read-out: IC50, Experiment 1): 900 nM; IC50 (read-out: IC50, Experiment 2): 1000 nM |
| CC(O)(CS(=O)(=O)c1ccc(F)cc1)C(=O)Nc1ccc(C#N)c(C(F)(F)F)c1 [(R), N-(4cyano-3-trifluoromethyl-phenyl)-3-(4-fluoro-phenylsulfonyl)2-hydroxy-2-methyl-propionamide] | 374 nM | 359 nM | – |
| C[C@@](O)(CS(=O)(=O)c1ccc(F)cc1)C(=O)Nc1ccc(C#N)c(C(F)(F)F)c1 [(S)] | 7700 nM | 11000 nM | – |
| C[C@]12CCC(=O)C[C@@H]1CC[C@@H]1[C@@H]2CC[C@]2(C)[C@@H](O)CC[C@@H]12 [DHT (Standard), dihydrotestosterone] | – | – | EC50 (read-out: EC50, Experiment 1): 0.18 nM; EC50 (read-out: EC50, Experiment 2): 0.18 nM |
| CC(C)(O)C(=O)Nc1ccc([N+](=O)[O-])c(C(F)(F)F)c1 [OH Flut. (Standard)] | 19 nM | 41 nM | – |

From patent US6583306B1, “Methods of asymmetrically synthesizing enantiomers of Casodex, its derivatives and intermediates thereof” (priority 1999, dated 2003)
